Assay results reported in paper PMC8187357 (Communications Biology, 2021).
Values joined by “and” are separate entries in the source; they are usually repeats but may differ in a detail not shown here. Identical values can stand only once. “Also recorded” adds a separate entry of the source.

How the values were obtained:
MC38 colon carcinoma = assay: MC38 tumors in immunodeficient SCID beige mice; type: in vivo, mouse; details: for Individual tumor volumes: MC-38 in SCID beige mice, 10mg/kg, 10 mg/kg
Procedure: For MC38 syngeneic colon carcinoma subcutaneous model, 0.5 × 10^6 MC38 cells (Source: NCI/NIH, kind gift from Dr. Michael Pollack) were injected subcutaneously to the left flank of the C57B6 mouse (In-house) or SCID Beige mice (Source: Harlan, France) on day 1 and dosing was initiated when average tumor volume reached ~100 mm^3. Animals were randomized based on tumor volumes and treated with either a vehicle control or CA-170 at indicated doses for 14 days. Anti-PD1 antibody (Clone J43 from BioXcel) was dosed intraperitoneally at 100 µg/animal once every week. Treatment efficacy was assessed in terms of the effects of the test substances on the tumor volumes of treated mice relative to vehicle-treated mice. Tumor growth curves of test and control groups using the mean tumor volumes were drawn, percent tumor growth inhibition (%TGI) […].

[1] = test system: Ion Channels Ca2+, Kv, Skca, Na2+; assay: CEREP 80 panel binding: Ion Channels; details: 10 µM
Procedure: (§1) CEREP 80 panel assay was carried out by Eurofins Cerep Panlabs facility at France. A series of binding assays was carried out to understand the off-target toxicity of CA-170. CA-170 was tested at 10 μM test concentration in duplicates. Compound binding was calculated as a % inhibition of the binding of a radioactively labeled ligand specific for each target. In each experiment the respective reference compound was tested concurrently with CA-170, and the data were compared with historical values determined at Eurofins. The experiment was accepted in accordance with Eurofins validation standard operating procedure. The results are expressed as a percent of control specific binding; (measured specific binding / control specific binding) × 100 and as a percent inhibition of control specific binding; 100−(measured specific binding / control specific binding) × 100 obtained in the presence of CA-170. The IC50 values (concentration causing a half-maximal inhibition of control specific binding) and Hill coefficients (nH) were determined by non-linear regression analysis of the competition curves generated with mean replicate values using Hill equation curve fitting.

PD-1:PD-L1 complex = molecular target: T1, PD-1:PD-L1 complex (Homo sapiens, UniProt Q9NZQ7); assay: TR-FRET PD-1:PD-L1 complex formation assay; type: binding; details: for Percent inhibition: duplicates
T1 construct: purchased Sino Biologicals (PD-L1); R&D system (PD-1 Fc) 10084-H08H; 1086-PD; host or cells: mammalian cells
Procedure: The assay was performed using LANCE Ultra TR-FRET binding assay. To determine the half maximal inhibitory concentration (IC50) of tested compounds, they were solubilized in water and measurements were performed on individual dilution series. His-tagged human recombinant PD-L1 protein (Sino Biologicals, Cat#10084-H08H) at 20 nM final concentration was incubated at 25 °C temperature with indicated concentration of test compound for 15 min in a white Lumitec high-binding, 384-well plate (Grenier, Cat #781074). […] LANCE Eu-anti-human IgG from Perkin Elmer, (Cat# AD0212) at 0.5 nM final concentration and Surelight Allophycocyanin-6-His from Perkin Elmer (Cat# AD0059H) at 20 nM final concentration was added to the wells. […] Collected data was background subtracted on the negative control, normalized, and analyzed using non-linear regression analysis to determine the IC50 value by GraphPad Prism Version 8.

[2] = test system: Dopamine D1, D2S, D3, D44, D5; assay: CEREP 80 panel binding: Dopamine; details: 10 µM
Procedure: as §1

Somatostatin sst = assay: CEREP 80 panel binding: Somatostatin; details: 10 µM
Procedure: as §1

purinergic P2X, P2Y = assay: CEREP 80 panel binding: purinergic; details: 10 µM
Procedure: as §1

Cl-Channel = assay: CEREP 80 panel binding: Cl-Channel; details: 10 µM
Procedure: as §1

CGRP = molecular target: T2, CGRP (Homo sapiens, UniProt O60894+Q16602); assay: CEREP 80 panel binding: CGRP; details: read-out: % Inhibition of Control Specific Binding
T2 construct: Eurofins Cerep Panlabs (contract assay)
Procedure: as §1

Chemokines CCR1, CXCR2 = assay: CEREP 80 panel binding: Chemokines; details: 10 µM
Procedure: as §1

PACAP,VIP1 = assay: CEREP 80 panel binding: VIP; details: 10 µM
Procedure: as §1

VISTA = molecular target: T3, VISTA (Homo sapiens, UniProt Q9H7M9); assay: VISTA functional assay (IFN-γ release, human PBMC); type: cell-based; details: for IFNγ Rescue (%): inhibited by VISTA; for IFNγ Rescue (%) / IFN-γ: replicates; for IFN-γ: human PBMCs + anti-CD3/anti-CD28 + VISTA 2.5 µg/mL
T3 construct: purchased R&D systems 126-B7
Procedure: The ability of CA-170 to rescue VISTA-mediated inhibition of IFN-γ release from anti-CD3/CD28-stimulated human PBMC was used to monitor the effect of CA-170 on VISTA functionality. Briefly, 96-well cell culture plates were pre-coated with recombinant human VISTA (2.5 µg/mL) and anti- human CD3 (2.5 µg/mL) overnight at 4 °C. Anti-human VISTA and isotype control antibodies were either coated along with the VISTA or incubated for 30 min next day before addition of cells. On the next day, plates were incubated with CA-170 for 30 min at different concentrations. Isolated PBMC (0.1 × 10^6 cells/well) and anti-human CD28 antibodies (1 µg/mL) were added to the wells. The culture was further incubated for 72 h at 37 °C with 5% CO2. After 72 h of incubation the cell culture supernatants were collected after brief centrifugation at 200 g x 5 min at 4 °C and processed for human IFN-γ measurement by ELISA following manufacturer’s protocol (R&D Systems; DY-285). Percent rescue of IFN-γ release was calculated by normalizing individual percent test agent IFN-γ release values to percent anti-CD3 and anti-CD28 antibodies stimulated IFN-γ release. EC50 values were derived by plotting transformed data into non-linear fit in sigmoidal dose–response curve using GraphPad Prism software (Version 7).

[3] = test system: BZD (peripheral), BZD (central); assay: CEREP 80 panel binding: Benzodiazepine; details: 10 µM
Procedure: as §1

T1 sequence (Q9NZQ7 19-239 limits assumed, one chain of several): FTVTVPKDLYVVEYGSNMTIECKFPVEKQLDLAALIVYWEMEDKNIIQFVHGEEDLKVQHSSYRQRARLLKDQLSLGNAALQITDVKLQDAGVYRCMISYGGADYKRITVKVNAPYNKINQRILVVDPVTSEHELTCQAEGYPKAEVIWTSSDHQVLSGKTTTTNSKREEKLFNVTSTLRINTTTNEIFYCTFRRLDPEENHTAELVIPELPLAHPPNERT
T3 sequence (Q9H7M9 with tags, fused parts or gaps limits assumed): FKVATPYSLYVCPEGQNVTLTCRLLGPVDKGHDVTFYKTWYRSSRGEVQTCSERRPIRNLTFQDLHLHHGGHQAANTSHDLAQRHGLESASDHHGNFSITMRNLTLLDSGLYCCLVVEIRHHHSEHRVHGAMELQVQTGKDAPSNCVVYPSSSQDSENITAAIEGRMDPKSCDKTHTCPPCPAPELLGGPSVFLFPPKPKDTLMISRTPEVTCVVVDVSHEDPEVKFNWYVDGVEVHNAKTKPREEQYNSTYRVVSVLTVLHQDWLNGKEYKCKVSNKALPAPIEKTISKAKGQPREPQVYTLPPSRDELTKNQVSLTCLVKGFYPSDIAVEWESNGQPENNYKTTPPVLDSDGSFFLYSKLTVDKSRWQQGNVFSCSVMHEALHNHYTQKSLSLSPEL
T2 sequence (Q16602 23-461): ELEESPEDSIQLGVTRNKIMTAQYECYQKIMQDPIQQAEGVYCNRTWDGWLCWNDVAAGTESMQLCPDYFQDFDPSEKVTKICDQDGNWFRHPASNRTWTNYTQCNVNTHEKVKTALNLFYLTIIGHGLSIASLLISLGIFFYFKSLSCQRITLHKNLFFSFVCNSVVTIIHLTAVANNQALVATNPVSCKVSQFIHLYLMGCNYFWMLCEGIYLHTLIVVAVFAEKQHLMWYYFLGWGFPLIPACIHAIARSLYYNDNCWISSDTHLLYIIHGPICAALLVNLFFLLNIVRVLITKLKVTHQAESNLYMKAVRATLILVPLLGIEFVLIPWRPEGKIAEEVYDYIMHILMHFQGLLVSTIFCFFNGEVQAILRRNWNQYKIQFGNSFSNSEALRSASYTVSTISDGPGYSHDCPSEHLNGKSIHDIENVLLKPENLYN
T2 sequence (O60894 27-148): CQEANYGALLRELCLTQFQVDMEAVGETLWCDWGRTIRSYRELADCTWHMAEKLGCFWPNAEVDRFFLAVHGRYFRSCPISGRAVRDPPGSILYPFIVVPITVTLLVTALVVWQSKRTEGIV

C[C@@H](O)[C@H](NC(=O)N[C@@H](CC(N)=O)c1nc([C@@H](N)CO)no1)C(=O)O [CA-170]
Individual tumor volumes (MC38 colon carcinoma; day 0 of treatment): 18.9 mm3 and 19.8 mm3 and 20.5 mm3 and 23 mm3 and 24.3 mm3 and 24.4 mm3 and 27.8 mm3 and 29.3 mm3 and 36.6 mm3 and 38.8 mm3 and 45.9 mm3 | Individual tumor volumes (MC38 colon carcinoma; day 4 of treatment): 165.2 mm3 and 101 mm3 and 33 mm3 and 98.6 mm3 and 101.4 mm3 and 42.7 mm3 and 80.2 mm3 and 120.3 mm3 and 117 mm3 and 120.8 mm3 and 58.8 mm3 | Individual tumor volumes (MC38 colon carcinoma; day 6 of treatment): 428.8 mm3 and 320.3 mm3 and 190.1 mm3 and 337.3 mm3 and 331.1 mm3 and 174.3 mm3 and 206.7 mm3 and 322.4 mm3 and 214 mm3 and 233.5 mm3 and 207.9 mm3 | Individual tumor volumes (MC38 colon carcinoma; day 8 of treatment): 764.7 mm3 and 861.8 mm3 and 304.4 mm3 and 735.9 mm3 and 484.9 mm3 and 297 mm3 and 527.3 mm3 and 483.7 mm3 and 349.6 mm3 and 472.6 mm3 and 369.9 mm3 | Individual tumor volumes (MC38 colon carcinoma; day 11 of treatment): 1229.8 mm3 and 1458.4 mm3 and 838.9 mm3 and 1334.2 mm3 and 1120.4 mm3 and 912.1 mm3 and 1214.1 mm3 and 1274.2 mm3 and 788.4 mm3 and 1032.8 mm3 and 931.5 mm3 | Individual tumor volumes (MC38 colon carcinoma; day 13 of treatment): 1679 mm3 and 1958.7 mm3 and 1062 mm3 and 1678.6 mm3 and 1535.8 mm3 and 938 mm3 and 1760.9 mm3 and 1177.1 mm3 and 1641.5 mm3 and 1410.5 mm3 | tumor growth vs vehicle in immunodeficient mice (in words) (MC38 colon carcinoma; SCID beige mice, MC-38, 10 mg/kg/day for 14 days): no difference in the tumor volumes; also recorded: no statistically significant difference | % Inhibition of Control Specific Binding [1]: 1% | Percent inhibition (PD-1:PD-L1 complex; 1e-7 M): 6.182% and -0.9776% | Percent inhibition (PD-1:PD-L1 complex; 1e-6 M): -12.4686% and -2.961% | Percent inhibition (PD-1:PD-L1 complex; 1e-5 M): -7.3407% and -7.039% | Percent inhibition (PD-1:PD-L1 complex; 0.0001 M): -7.475% and -8.751% | prevention of PD-1:PD-L1 complex formation (in words) (PD-1:PD-L1 complex; tested up to 100 μM): did not lead to prevention of complex formation | % Inhibition of Control Specific Binding [2]: ≤ 14% | % Inhibition of Control Specific Binding (Somatostatin sst): 1% | % Inhibition of Control Specific Binding (purinergic P2X, P2Y): ≤ 3% | % Inhibition of Control Specific Binding (Cl-Channel): 2% | inhibition at 10 µM (CGRP): 1% | % Inhibition of Control Specific Binding (Chemokines CCR1, CXCR2): 1% | % Inhibition of Control Specific Binding (PACAP,VIP1): ≤ 9% | IFNγ Rescue (%) (VISTA; 1.95 nM): -2.58% and 0.00% and 0.36% | IFNγ Rescue (%) (VISTA; 3.91 nM): -0.86% and 0.32% and 1.09% | IFNγ Rescue (%) (VISTA; 7.81 nM): 5.58% and 4.87% and 6.18% | IFNγ Rescue (%) (VISTA; 15.63 nM): 21.46% and 16.88% and 19.64% | IFN-γ (VISTA; 31.25 nM): 1018 pg/mL and 1268 pg/mL and 1298 pg/mL | IFNγ Rescue (%) (VISTA; 31.25 nM): 36.91% and 37.66% and 42.55% | IFNγ Rescue (%) (VISTA; 62.50 nM): 48.07% and 36.69% and 46.91% | IFNγ Rescue (%) (VISTA; 250.00 nM): 107.73% and 72.73% and 91.64% | IFN-γ (VISTA; 500 nM): 2498 pg/mL and 2438 pg/mL and 2828 pg/mL | IFNγ Rescue (%) (VISTA; 500.00 nM): 100.43% and 75.65% and 98.18% | rescue of IFNγ release inhibited by recombinant VISTA (in words) (VISTA; human PBMCs stimulated with anti-CD3 and anti-CD28): rescued IFNγ release | EC50 (VISTA; mean ± S.D., n=4, read-out: Human PBMC IFN-γ Rescue EC50 VISTA): 82.9 nM | % Inhibition of Control Specific Binding [3]: ≤ 5%
